Experimental data from US8324280B2, “Treatment of prostate cancer with DDC inhibitor” (The University of British Columbia, priority 2008, dated 2012).

What was measured:
AR [1] = test: AR transactivation assay (pARR3-tk-Luc) in AR transfected PC3 cells; assay type: cell-based, human
Source text: (§1) PC3 and LNCaP cells were transfected, treated with R1881 and used for luciferase assays, as described previously. Briefly, human AR expression plasmid (pcDNA3.1-hAR) and AR-regulated luciferase reporters, pARR3-tk-Luc or pPSA-630 bp-Luc (−630/+12 bp of the 5′ PSA flanking region) {Snoek, 1998 #136}, were cotransfected into cells, along with DDC expression plasmid (pDEST12.2-DDC) or control empty vector (pDEST12.2). Firefly luciferase values were normalized to renilla luciferase (PRL-TK reporter; Promega Corp.) and expressed as relative luciferase units (RLU).
Transactivation assays for AR were also performed in PC3 cells treated with dopamine (DA) and serotonin (5-HT, 5-hyroxytyrptamine), which were purchased from Sigma. As described above, cells were transfected with pcDNA3.1-hAR, pRL-TK-renilla and pARR3-tk-Luc reporter but DDC was excluded. Cells were then treated with or without 1 nM R1881 and varying concentrations of pure DA or 5-HT in 5% dextran-coated charcoal stripped FBS (DCC-FBS) for 24 hours before harvest and luciferase assay.

LNCaP cells [2] = test: cAMP assay in LNCaP cells; assay type: cell-based, human; conditions: all concentrations; DA 15 minutes, 5-HT 10 minutes
Experimental: (§2) PC3 and LNCaP cells were seeded in 12-well plates at a density of 1.5×10^5 cells/well. The next day, cells were gently washed three times with serum-free media to remove excess FBS and grown for a further 24 hours in the absence of serum. Cells were then stimulated with various concentrations of DA for 15 minutes or 5-HT for 10 minutes at 37° C. Cells were lysed and intracellular cAMP levels were determined using the cAMP Biotrak Enzymeimmunoassay System (Amersham Biosciences) following the manufacturer's instructions. Assays were performed in triplicate with two independent trials.

PC3 cells = test: cAMP assay in PC3 cells; assay type: cell-based
Experimental: as §2

DDC [3] = molecular target: T1, DDC (Rattus norvegicus, UniProt P14173); test: Dopamine ELISA on conditioned medium of PC12 cells; assay type: cell-based; conditions: 1 μM NSD-1015, 24 hours
T1 construct: PC12 cells were not transfected or treated with R1881 but were incubated 24 hours with or without NSD-1015; endogenous in cells; host or cells: PC12 rat adrenal pheochromocytoma cells
T1 sequence (P14173 1-480): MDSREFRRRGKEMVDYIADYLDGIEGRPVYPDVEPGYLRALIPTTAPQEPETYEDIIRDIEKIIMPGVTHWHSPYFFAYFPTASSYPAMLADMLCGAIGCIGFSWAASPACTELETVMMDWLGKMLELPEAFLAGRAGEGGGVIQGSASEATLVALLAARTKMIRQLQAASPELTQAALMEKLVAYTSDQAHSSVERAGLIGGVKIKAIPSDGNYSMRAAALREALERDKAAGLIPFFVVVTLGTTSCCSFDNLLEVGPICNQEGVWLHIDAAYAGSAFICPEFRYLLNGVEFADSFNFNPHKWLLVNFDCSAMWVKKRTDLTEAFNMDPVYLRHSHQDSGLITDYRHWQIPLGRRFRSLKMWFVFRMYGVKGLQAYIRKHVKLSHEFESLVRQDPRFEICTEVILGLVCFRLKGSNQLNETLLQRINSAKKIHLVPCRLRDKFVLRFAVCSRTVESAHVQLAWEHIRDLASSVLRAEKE
Experimental: (§3) PC3 cells were seeded in 12-well plates at a density of 1.5×10^5 cells/well and transfected the following day with pcDNA3.1-AR and pDEST12.2-DDC or pDEST12.2 empty vector control, as described above for transactivation assays. The next day, media was changed to 5% DCC-FBS containing 1 nM R1881. Conditioned culture media was removed 24 hours later and stored at −80° C. A 100 μL volume of media was used for the competitive enzyme-linked immunosorbent assay (ELISA). Dopamine was assayed using the Dopamine Research Enzyme Immunoassay kit (Rocky Mountain Diagnostics) following the manufacturer's instructions. PC12 cells, used as a positive control, were grown to 70% confluency (12-well plates) and conditioned media was collected 24 hours later for assay, as above. Secreted DA levels from PC3 and PC12 cells were determined in the presence and absence of 1 μM NSD-1015 (3-hydroxybenzylhydrazine) DDC enzymatic inhibitor (Sigma). All ELISAs were performed in triplicate with two independent trials.

LNCaP cells [4] = test: MTS cell proliferation assay, androgen-dependent LNCaP cells; assay type: cell-based, human; conditions: 10 μM, 8 days
Experimental: Cell proliferation assays were performed using the 3-(4,5-dimethylhiazol-2-yl)-5-(3-carboxymethoxyphenyl)-2-(4-sulfophenyl)-2H-tetrazolium Assay (MTS) according to the manufacturer's protocol, with minor modifications (Promega). LNCaP cells were plated in 96-well plates at a density of 3000 cells per well and incubated in RPMI medium containing 5% CSS for one day. On the following day, the DDC inhibitors, carbidopa (25 and 50 μM) and NSD-1015 (10 μM)±0.1 nM R1881 were added to each well in charcoal-stripped serum (CSS; Hyclone, VWR) RPMI media. The cells were harvested at days 0, 2, 4, 6 and 8, with a medium change every 3 days. Each time point was measured with 6 replicates.
(§4) Student's t-test (two-sample equal variance) was used to evaluate statistically significant differences. All calculated p-values were two-sided and those less than 0.05 were considered statistically significant.

DDC [5] = molecular target: T2, DDC (Homo sapiens, UniProt P20711); test: Dopamine ELISA on conditioned medium of PC3 cells overexpressing DDC; assay type: cell-based; conditions: 1 μM NSD-1015, 24 hours, 1 nM R1881
T2 construct: expressed in transfected cells; host or cells: PC3 cells, co-transfected with pcDNA3.1-AR
T2 sequence (P20711 1-480): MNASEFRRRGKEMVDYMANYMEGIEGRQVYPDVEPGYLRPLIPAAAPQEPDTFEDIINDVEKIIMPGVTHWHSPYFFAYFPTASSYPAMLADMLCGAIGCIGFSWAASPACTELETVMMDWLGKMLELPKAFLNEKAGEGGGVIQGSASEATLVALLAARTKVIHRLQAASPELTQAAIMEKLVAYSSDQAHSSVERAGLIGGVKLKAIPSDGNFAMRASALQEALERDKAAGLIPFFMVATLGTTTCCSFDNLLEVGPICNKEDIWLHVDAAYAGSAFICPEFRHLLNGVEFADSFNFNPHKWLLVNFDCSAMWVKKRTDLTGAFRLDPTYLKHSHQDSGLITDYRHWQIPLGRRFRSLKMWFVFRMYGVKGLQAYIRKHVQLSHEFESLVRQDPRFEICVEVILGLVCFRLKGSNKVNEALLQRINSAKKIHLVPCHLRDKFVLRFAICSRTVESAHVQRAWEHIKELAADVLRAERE
Experimental: as §3

C4-2 cells = test: MTS cell proliferation assay, androgen-independent C4-2 cells; assay type: cell-based, human; conditions: 10 μM, 6 days
Experimental: Cell proliferation assays were performed using the 3-(4,5-dimethylhiazol-2-yl)-5-(3-carboxymethoxyphenyl)-2-(4-sulfophenyl)-2H-tetrazolium Assay (MTS) according to the manufacturer's protocol, with minor modifications (Promega). C4-2 cells were plated in 96-well plates at a density of 750 cells per well in RPMI medium containing 5% CSS for 1 day. On the following day, the DDC inhibitors, carbidopa (25 μM) and NSD-1015 (10 μM)±0.1 nM R1881 were added to each well in charcoal-stripped serum (CSS; Hyclone, VWR) RPMI media. The cells were harvested at days 0, 2, 4, and 6, with a medium change every 3 days. Each time point was measured with 6 replicates.
as §4

AR ligand binding domain = molecular target: T3, AR ligand binding domain (Rattus norvegicus, UniProt P15207); test: In vitro hydroxylapatite pulldown ligand binding assay
T3 construct: purchased PanVera
T3 sequence (P15207 651-882 limits assumed): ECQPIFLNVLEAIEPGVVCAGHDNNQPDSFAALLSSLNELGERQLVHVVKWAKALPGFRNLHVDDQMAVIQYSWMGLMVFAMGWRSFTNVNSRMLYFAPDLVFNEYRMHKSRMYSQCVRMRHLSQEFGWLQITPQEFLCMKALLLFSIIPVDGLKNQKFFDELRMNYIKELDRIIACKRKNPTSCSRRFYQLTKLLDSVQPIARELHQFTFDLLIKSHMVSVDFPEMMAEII
Experimental: Recombinant rat thioredoxin-fused AR ligand binding domain (PanVera, 1.390 mg/mL, 48.4 kDa), which is identical to the human AR-LBD, was used for hydroxylapatite (HAP) pulldown ligand binding assays at R1881 concentrations of 0 to 1000 nM {Portigal, 2002 #86}. Initially, his-tagged-DDC protein was expressed in BL21-SI bacteria, containing the pDEST17-His-DDC plasmid, and purified using a nickel-nitrilotriacetic acid (Ni-NTA)-agarose column according to the manufacturer's protocol (Qiagen). Purified AR-LBD was diluted to a final concentration of 1 μg/mL in binding buffer (50 mM Tris pH 7.5, 10% glycerol, 0.8 M NaCl, 1 mg/mL BSA and 2 mM dithiothreitol), containing tracer 20 nM [^3H]-R1881 (NEN Life Science Products, 75.2 Ci/mmol, 1 mCi/mL). In order to minimize the use of radioactive ligand, supplemental cold R1881 was added to the assay mix to achieve the high 100 nM and 1000 nM total R1881 concentrations. Assays were carried out in the absence and presence of 0.5 μg of His-DDC protein, which was added directly to the 1 mL assay mix. Following overnight incubation at 4° C., a 50% HAP slurry (Calbiochem Fast Flow hydroxylapatite in […] pH 8.0 and 1 mM EDTA) was added to the assay, pellets were incubated on ice for 10 minutes, and then washed four times with wash buffer (40 mM Tris pH 7.5, 100 mM KCl, 1 mM EDTA and 1 mM EGTA). HAP pellets were resuspended in ethanol and bound [^3H]-R1881 was measured (disintegrations per minute, dpm) using a Beckman LS 6500 scintillation counter.
To determine non-specific binding (NSB) to the HAP matrix, control pulldown assays were carried out using an assay mix that lacked AR-LBD. […] NSB values were subtracted from sample measurements for determination of specific binding. The total dpm per assay was determined by measuring a known amount of [^3H]-R1881 and normalizing to the total assay volume (1 mL). All assays were carried out in triplicate and the pmole bound [^3H]-R1881/mg AR-LBD protein was calculated by using the measured dpm of tracer 20 nM [^3H]-R1881. Calculated values were then extrapolated to determine total ligand bound at the 10 nM, 100 nM and 1000 nM R1881 concentrations. Results were expressed as the mean total pmole bound R1881/mg AR-LBD protein (±SEM).

AR [6] = test: AR transactivation assay (pARR3-tk-Luc) in LNCaP cells; assay type: cell-based, human; conditions: endogenous AR, 24 hours
Source text: as §1

AR [7] = test: Cell-based ligand binding assay in HeLa-AR cells (cytosol); design: species or system human
Experimental: HeLa-AR cells were cultured for 24-48 hours in DMEM containing 5% DCC-FBS and seeded onto 6 cm plates at a density of 1×10^6 cells/plate. After 5 hours, cells were transfected with either pDEST12.2-DDC or pDEST12.2 control vector (5 μg/plate) using Lipofectin Reagent (Invitrogen). The next day, transfection mix was changed to DMEM supplemented with 5% DCC-FBS containing increasing concentrations of [^3H]-R1881 (0-10 nM). To determine non-specific binding, hormone treatments were carried out in the presence (NSB) and absence (total binding) of excess cold 1000 nM R1881. After 24 hours of incubation with hormone, cells were harvested as described previously. […]
Cytosolic and nuclear extracts were then thawed and incubated for 6 hours with agarose beads conjugated to FLAG monoclonal antibody (Sigma, USA). […] Beads were washed with Buffer D (20 mM HEPES pH 7.9, 20% glycerol, 0.3 M KCl, 0.2 mM EDTA, 0.05% NP-40, 0.5 mM DTT, 0.5 mM PMSF) and specifically bound ligand (total binding—NSB) to the immunopreciptated FLAG-tagged AR protein was determined by measuring the levels of tritium (dpm) in bead resuspensions using a scintillation counter. All measured bound dpm values were normalized to corresponding Western blot AR protein band intensities. Results were expressed as the relative (normalized to the level of AR protein) mean bound ligand of three replicates (±SEM).

[8] = presence of hormone (0.1 nM R1881)

Compound: NCCc1c[nH]c2ccc(O)cc12 [5-HT, 5-hyroxytyrptamine]
- AR activity in the absence or presence of ligand (AR [1]; 0-100 nM, with or without 1 nM R1881, 24 hours): did not alter AR activity
- intracellular cAMP response (LNCaP cells [2]): did not increase cAMP levels
- intracellular cAMP response (PC3 cells; 5-HT 10 minutes): did not increase cAMP levels

Compound: NCCc1ccc(O)c(O)c1 [DA, dopamine]
- repression of ligand-dependent AR transcription (AR [1]; highest 200 μM concentration, 1 nM R1881, 24 hours): 2.2 fold
- ligand-independent activation of AR (AR [1]; without R1881, 24 hours): not affected
- intracellular cAMP response (LNCaP cells [2]): did not induce a significant cAMP response
- increase in intracellular cAMP versus untreated cells (PC3 cells; maximum 200 μM concentration, 15 minutes): ~52 fold

Compound: NNCc1cccc(O)c1 [NSD-1015, 3-hydroxybenzylhydrazine]
- reduction of DA levels (DDC [3]): 2.6 fold
- secreted DA level (DDC [3]): 3561±2032 pg/mL CM
- decrease in cell growth (LNCaP cells [4]; absence of hormone): 1.43 fold
- decline in cell growth (LNCaP cells [4]; [8]): 1.15 fold
- secreted DA level (DDC [5]): 220±85 pg/mL CM
- decrease in cell growth (C4-2 cells; absence of hormone): 1.20 fold
- decline in cell growth (C4-2 cells; [8]): 1.24 fold

Compound: C[C@]1(O)CC[C@H]2[C@@H]3CCC4=CC(=O)CCC4=C3C=C[C@@]21C [R1881]
- available ligand bound to AR-LBD (ligand-binding efficiency) (AR ligand binding domain; 20 nM [3H]-R1881, absence and presence of His-DDC): about 5%
- ligand-binding efficiency (AR ligand binding domain; 100 nM R1881, absence of DDC): 14%
- total available ligand bound to AR-LBD (AR ligand binding domain; 100 nM R1881, with His-DDC): 24.5%
- ligand-binding efficiency (AR ligand binding domain; 1000 nM R1881, absence of DDC): 54%
- total available ligand bound to AR-LBD (AR ligand binding domain; 1000 nM R1881, with His-DDC): 92%
- R1881 concentration required to 50% saturate total AR-LBD protein (AR ligand binding domain; absence of His-DDC): 883 nM
- R1881 concentration required to 50% saturate total AR-LBD protein (AR ligand binding domain; presence of His-DDC (0.5 μg/assay)): 425 nM
- bound R1881 (AR ligand binding domain; tracer 20 nM [3H]-R1881, AR-LBD control): 895±93 pmole bound R1881/mg AR-LBD
- bound R1881 (AR ligand binding domain; tracer 20 nM [3H]-R1881, AR-LBD+His-DDC): 937±111 pmole bound R1881/mg AR-LBD
- minimum concentration required for activation of AR transcription (AR [1]; PC3 cells transfected with AR, 24 hours): 0.1 nM
- minimum concentration required for activation of AR transcription (AR [6]): 0.1 nM
- amount of R1881 required to reach the control Bmax (AR [7]; presence of DDC (overexpression)): 0.56 nM
- R1881 concentration at which control Bmax occurred (AR [7]; vector control): 1 nM
